# Experiments:
# neutrophils = experiment: Neutrophil migration inhibitory action (Test Example 5); type: cell-based; details: Homo sapiens, 0.5 h, FMLP 1 μM, Boyden Chamber, 37° C., 30 minutes, read-out: Neutrophil migration inhibition IC50
# Description: Neutrophils were isolated from 50 to 100 ml of peripheral blood collected from healthy donors by the method described in Test Example 1 to obtain a cell suspension (8×10^6/ml). Subsequently, solutions of a test compound at various concentrations were introduced into wells of a 96-well plate in a volume of 125 μl per well, the cell suspension of an equivalent volume was added to it and the plate was preincubated at room temperature for 5 minutes. During the preincubation, FMLP (1 μM, Sigma) solution was added to the lower chamber to set Boyden Chamber, the preincubated cell suspension was added to the upper chamber in a volume of 200 μl per well, and the cells were allowed to migrate at 37° C. under 5% carbon dioxide for 30 minutes. The filter after the migration was collected, and the non-migrated cells adhered to the surface that faced the upper chamber were carefully wiped off. Then, the migrated cells on the back surface were stained with DifQuick dye solution (International Reagents), washed with water and dried, and then absorbance was measured at 595 nm. The inhibition ratio against migration (%) of a test compound was calculated by using the following equation: Migration inhibition ratio (%)=(1−Absorbance of the group with addition of test compound/Absorbance of the group without addition of test compound)×100 […]
# [1] = tested on: phosphorylated myosin regulatory light chain; experiment: Action on amount of phosphorylated myosin regulatory light chain in the cells (Test Example 1); type: cell-based; details: Homo sapiens, Neutrophil, 5 min, human neutrophils; reaction with test compound at 25° C. for 5 minutes; read-out: Inhibition of myosin regulatory light chain phosphorylation (IC50: μM)
# Description: A volume of 50 to 100 ml of peripheral blood collected from healthy volunteers was centrifuged by using Mono-Poly separator solution (Dainippon Pharmaceutical) to prepare a neutrophil containing fraction. The neutrophils were washed with PBS(−) and resuspended in Hanks' Balanced Salt Solution (HBSS+, Gibco) to prepare a cell suspension (8×10^6/ml). The cell suspension was diluted to 5×10^6/ml, introduced into Eppendorf tubes in a volume of 0.4 ml each, then 0.1 ml each of solutions of a test compound at various concentrations were added to the suspension and allowed to react at 25° C. for 5 minutes. […]
# The gel after the electrophoresis was blotted on a nitrocellulose membrane (BioRad), blocked with 5% skim milk, and reacted successively with antibodies pLC1 (Sakurada K. et al, Am. J. Physiol., 274, C1563–C1572 (1998)), which specifically recognize the phosphorylated myosin regulatory light chain, and donkey anti-mouse IgG (Chemicon) conjugated with horseradish peroxidase (HRP-labeled). The band of the phosphorylated myosin regulatory light chain was detected on a film by using ECL Plus Kit (Amersham Pharmacia Biotech). This band was subjected to quantification using a densitometer. By using this value, the inhibitory ratio (%) for phosphorylation of the myosin regulatory light chain was calculated by using the following equation. […]
# [2] = tested on: thoracic aorta constricted with phenylephrine; experiment: Vasoconstriction inhibitory action (Test Example 2); design: species or system Rats (Wistar); details: test compound 1 μM; aorta constricted with phenylephrine 1 μM
# Text: Rats (Wistar, 11-week old) were bleeded to death and laparotomized to take out the thoracic aorta. That aorta was cut into a ring of a length of about 3 mm in a conventional manner (Asano, T., et al., J. Pharmacol. Exp. Ther., 241, pp. 1033–1040 (1987)) and hung in 10-ml organ bath filled with Krebs-Hensright nutrient solution bubbled with a mixed gas of 95% O2 and 5% CO2. One end of the blood vessel was connected to an isometric transducer (FD Pickup TB-912T, Nihon Kohden) and applied with 2.5 g of resting tension, and constriction and relaxation reactions of the aorta were recorded. The aorta was constricted with phenylephrine (1 μM, Sigma) and then added with a test compound (1 μM), and the vasoconstriction inhibitory action thereof was observed. The vasoconstriction inhibitory actions of the test compounds are shown in Table 6 mentioned below as the relaxation ratios, which are based on the vasoconstriction with phenylephrine immediately before the addition of the test compound taken as 100%.
compound,measurement,setting,value
"CC1CNCCN1S(=O)(=O)c1cccc2cnccc12 (stereo not drawn) [Example H-7, 1-(5-Isoquinolinesulfonyl)-2-methylpiperazine]",IC50,neutrophils,> 40 µM
same,IC50,[1],80 µM
same,Vasoconstriction inhibitory action (relaxation ratio) (%),[2],22.0%

# Source: patent US7094789B2, “5-substituted isoquinoline derivatives” (Asahi Kasei Pharma Corporation, priority 2002, dated 2006)
